SMILES strings stand for the structures. Read-outs that look alike come from different tables or passages of the source.

These results are taken from paper PMC5522529, “Mechanisms of Paradoxical Activation of AMPK by the Kinase Inhibitors SU6656 and Sorafenib” (Cell Chemical Biology, 2017).

The target in experiment [1] is α2 kinase domain (α2-KD, residues 1–310) (Homo sapiens, UniProt P54646). As to conditions: read-out: Km for ATP; α2-KD phosphorylated using CaMKK2.
The test system of experiment [2] is AMPK. The experiment can be described thus: AMPK activity and Thr172 phosphorylation in HEK293 cells. Format: cell-based, human. As to conditions: 1 hr. As to the method: Figure 1 SU6656 Activates AMPK but Not AMPK-Related Kinases (A) HEK293 cells were incubated with the indicated concentrations of SU6656 or berberine (300 μM) for 1 hr; total AMPK activity was assayed in immunoprecipitates (top; mean ± SEM, n = 4), and phosphorylation of AMPK (Thr172), ACC (Ser80), and Raptor (Ser792) analyzed by western blotting (bottom; n = 2). (B) HEK293 cells were incubated with 100 μM SU6656 (1 hr), AMPK complexes containing α1, α2, β1, and β2 immunoprecipitated using isoform-specific antibodies, and AMPK activity measured (mean ± SEM, n = 4). (C) HeLa cells stably expressing LKB1 ([Fogarty et al., 2010]) were incubated with 100 μM SU6656 for 1 hr, AMPK or individual ARKs immunoprecipitated, and kinase assays carried out (antibodies that distinguish MARK2/MARK3 were not available, so they were assayed together). Results are means ± SEM (n = 2). In all panels, asterisks indicate significant differences from controls without SU6656. *p < 0.05, **p < 0.01, ****p < 0.0001. […]
Endogenous AMPK was immunoprecipitated using the specified antibodies (for total AMPK, an equal mixture of anti-α1 and –α2 antibodies) and assayed at 200 μM ATP ([Hardie et al., 2000], [Towler et al., 2008]) using the AMARA peptide ([Dale et al., 1995]) as substrate, except for assays of allosteric activation by AMP (Figure 5A) where the SAMS peptide was used as substrate with 2 mM ATP ([Gowans et al., 2013]). The AMPK-related kinases SIK1, SIK2, SIK3, SNARK, MARK2/3 and MARK4 were immunoprecipitated and assayed as previously described ([Lizcano et al., 2004]) in lysates of Hela cells stably expressing LKB1 ([Fogarty et al., 2010]). LKB1 was assayed using the LKBtide peptide as substrate ([Sakamoto et al., 2004]).

The test system of experiment [3] is Erk1/Erk2. The experiment can be described thus: Erk1/Erk2 phosphorylation in HEK293 cells (western blot). The format is cell-based, human. As to conditions: SU6656 100 μM, PP2 100 nM. Background: Immunoblotting shows a protein as a band on a membrane.
For experiment [4], the system named is AMPK. The format is cell-based, mouse. The settings on record: SYF cells, 1 hr. As to the method: We next tested the effect of SU6656 in SYF cells, which are mouse embryo fibroblasts (MEFs) with null alleles for Src, Yes, and Fyn, the three Src kinases expressed in MEFs ([Klinghoffer et al., 1999]).
Top: AMPK activity (mean ± SEM, n = 4); bottom: western blots showing phosphorylation of Thr172 on AMPK, and of ERK1/2, in cells treated with DMSO (control), SU6656 (100 μM), or PP2 (100 nM) (n = 2). (B) As (A), but in SYF cells. (C) HeLa cells were transfected with DNAs encoding GFP alone, or GFP fused to WT, Y261F/Y365F (FF), or Y36F/Y261F/Y365F (FFF) mutants of LKB1; cells were treated with increasing concentrations of SU6656 for 1 hr and AMPK activity determined (mean ± SEM, n = 4). See also Figure S1. (D) HEK293 cells were transfected with DNAs encoding FLAG-tagged AMPK-α2 with or without a Y436F mutation. Cells were incubated with DMSO (control), 100 μM SU6656, 10 mM phenformin, or 10 μM A23187 for 1 hr; AMPK complexes were immunoprecipitated using anti-FLAG antibody and assayed. The top panels show kinase activities (mean ± SD, n = 3); the bottom panels show blots from the same experiment (n = 2). In all panels, asterisks indicate significant differences from DMSO controls; in (D), there were no significant differences between the WT and Y463F mutant. **p < 0.01, ****p < 0.0001. […]

Experiment [5] deals with Erk1/2. Put plainly: Erk1/2 phosphorylation in SYF cells. Format: cell-based, mouse. As to conditions: SU6656 100 μM, PP2 100 nM.
Experiment [6] concerns ACC. Put plainly: ACC phosphorylation in HEK293 cells (western blot). Format: cell-based, human. The settings on record: 1 hr. As to the method: Figure 1 SU6656 Activates AMPK but Not AMPK-Related Kinases (A) HEK293 cells were incubated with the indicated concentrations of SU6656 or berberine (300 μM) for 1 hr; total AMPK activity was assayed in immunoprecipitates (top; mean ± SEM, n = 4), and phosphorylation of AMPK (Thr172), ACC (Ser80), and Raptor (Ser792) analyzed by western blotting (bottom; n = 2). (B) HEK293 cells were incubated with 100 μM SU6656 (1 hr), AMPK complexes containing α1, α2, β1, and β2 immunoprecipitated using isoform-specific antibodies, and AMPK activity measured (mean ± SEM, n = 4). (C) HeLa cells stably expressing LKB1 ([Fogarty et al., 2010]) were incubated with 100 μM SU6656 for 1 hr, AMPK or individual ARKs immunoprecipitated, and kinase assays carried out (antibodies that distinguish MARK2/MARK3 were not available, so they were assayed together). Results are means ± SEM (n = 2). In all panels, asterisks indicate significant differences from controls without SU6656. *p < 0.05, **p < 0.01, ****p < 0.0001.
(B) WT or RG cells were treated as in (A) and nucleotides extracted for analysis (mean ± SD, n = 3). […] (E) (See also Figure S2) Time courses of cellular oxygen uptake before and after addition of the indicated concentrations of sorafenib (SO, μM), SU6656 (100 μM) or phenformin (PHEN, 10 mM) (mean ± SEM, n = 4). (F) Effect of various concentrations of sorafenib or phenformin (10 mM) on activation (top, mean ± SEM, n = 3) or phosphorylation (bottom) of AMPK in cells expressing wild-type AMPK-γ2 (WT) or the R531G mutant AMPK-γ2 (RG). In all panels, asterisks show significant differences from DMSO controls (ns, not significant). […]
Cells were incubated for 60 min and AMPK activity measured; results in the top panel are means ± SEM (n = 8), with significant differences from the DMSO control indicated (ns, not significant). […]
SDS-PAGE was performed using precast Bis-Tris 4–12% gradient polyacrylamide gels in the MOPS buffer system (ThermoFisher Scientific). […] Protein concentrations were determined by Coomassie Blue binding with bovine serum albumin as standard ([Bradford, 1976]). […]

Experiment [7] relates to HEK293 cells. Put plainly: Cellular AMP:ATP and ADP:ATP ratios. The format is cell-based, human. As to conditions: 1 hr. As to the method: (B) WT or RG cells were treated as in (A) and nucleotides extracted for analysis (mean ± SD, n = 3). […] (E) (See also Figure S2) Time courses of cellular oxygen uptake before and after addition of the indicated concentrations of sorafenib (SO, μM), SU6656 (100 μM) or phenformin (PHEN, 10 mM) (mean ± SEM, n = 4). (F) Effect of various concentrations of sorafenib or phenformin (10 mM) on activation (top, mean ± SEM, n = 3) or phosphorylation (bottom) of AMPK in cells expressing wild-type AMPK-γ2 (WT) or the R531G mutant AMPK-γ2 (RG). In all panels, asterisks show significant differences from DMSO controls (ns, not significant). In (B), daggers (†) show significant differences between results in WT and RG cells. *p < 0.05, **p < 0.01, ***p < 0.001, ****p < 0.0001, ^††††p < 0.0001.
Cells were incubated for 60 min and AMPK activity measured; results in the top panel are means ± SEM (n = 8), with significant differences from the DMSO control indicated (ns, not significant). The bottom panels show western blots from the same experiment (n = 2). (B) Analysis of AMP:ATP and ADP:ATP ratios from a parallel experiment to that in (A). Results are means ± SEM (n = 3), with significant differences from the DMSO control indicated. *p < 0.05, **p < 0.01, ****p < 0.0001.
The levels of AMP, ADP and ATP were measured using a TSQ Quantiva interfaced with Ultimate 3000 Liquid Chromatography system (ThermoScientific), equipped with a porous graphitic carbon column (HyperCarb 30x1mm ID 3 μm; Part No: C-35003-031030, Thermo-Scientific). Mobile phase buffer A consisted of 0.3% (v/v) formic acid adjusted to pH 9 with ammonia prior to a 1:10 dilution. Mobile phase buffer B was 80% (v/v) acetonitrile. The column was maintained at a controlled temperature of 30°C and was equilibrated with 10% buffer B for 5 minutes at a constant flow rate of 0.06 mL/min. Aliquots of 1 μL of each sample were loaded onto the column and compounds eluted with a linear gradient of 10%-60% buffer B over 9 min. Buffer B was then increased to 100% within 1 min, and the column washed for 5 min with 100% Buffer B. Eluents were sprayed into the TSQ Quantiva using Ion Max NG ion source with ion transfer tube temperature set to 350°C and vaporizer temperature 125°C. The TSQ Quantiva was run in negative mode with a spray voltage of 2600, sheath gas 40 and Aux gas 10. Levels of ATP, ADP and AMP were measured using multiple reactions monitoring mode (MRM) with optimised collision energies and radio frequencies previously determined by infusing pure compounds. Three transitions were used to monitor each of the three compounds, ATP (505.92>158.98, 505.92>408.12 and 505.92>426.12), ADP (426.98>158.98, 426.98>328.78 and 426.98>409.09) and AMP (345.96>134.20, 345.96>151.27 and 345.96>211.12).

Experiment [8] has as its system LKB1 versus AMPK. More on the design: method as in MRC Kinase Inhibitor Database. As to conditions: ref MRC Kinase Inhibitor Database; cited from earlier work.

α2 kinase domain (α2-KD, residues 1–310), sequence (P54646 1-310): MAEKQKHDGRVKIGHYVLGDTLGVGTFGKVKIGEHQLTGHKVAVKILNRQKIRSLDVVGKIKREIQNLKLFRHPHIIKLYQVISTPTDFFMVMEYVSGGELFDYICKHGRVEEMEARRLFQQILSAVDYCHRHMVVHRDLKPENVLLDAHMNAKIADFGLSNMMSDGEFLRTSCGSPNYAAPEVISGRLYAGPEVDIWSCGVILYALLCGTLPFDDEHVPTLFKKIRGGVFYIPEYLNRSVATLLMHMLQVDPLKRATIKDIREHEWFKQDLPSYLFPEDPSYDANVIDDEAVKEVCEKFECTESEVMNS

As a reminder, the Km is the concentration of substrate that gives half-maximal velocity. For `Nc1ncnc2c1ncn2[C@@H]1O[C@H](COP(=O)(O)OP(=O)(O)OP(=O)(O)O)[C@@H](O)[C@H]1O` [ATP], the Km in experiment [1] was determined as 151 ± 7 µM.
For the compound `CC(C)(C)n1nc(-c2ccc(Cl)cc2)c2c(N)ncnc21` [PP2], the figures for the “AMPK activity / Thr172 phosphorylation” value in experiment [2] and in experiment [4] were “had no effect on AMPK activity or Thr172 phosphorylation” and “still had no effect on AMPK”, respectively. For the same compound, the Erk1/Erk2 phosphorylation entry in experiment [3] is listed as “reduced phosphorylation of Erk1/Erk2”. For the same compound, the Erk1/2 phosphorylation entry in experiment [5] was “had no effect on Erk1/2”.
In the case of `CC1(C)C(=O)N([C@H]2CCc3c(O)cccc32)c2nc(Nc3cccc(CN4CCCC4)c3)ncc21` [MRT199665], in experiment [2], the “AMPK activity / Thr172 phosphorylation” value is “modest increase in AMPK activity and Thr172 phosphorylation”. In experiment [6], the ACC phosphorylation entry is given as “inhibition of phosphorylation”. In experiment [7], the “cellular AMP:ATP and ADP:ATP ratios” value is “not associated with changes in AMP:ATP or ADP:ATP ratios”. Moreover, in experiment [8], the “potency of LKB1 inhibition relative to AMPK inhibition” value is listed as “inhibition of LKB1 was less potent than that of AMPK”.
